Assay results: patent US20090253718A1, “Pharmaceutical Compounds” (Astex Therapeutics Limited, priority 2006, published 2009)
pIC50: −log10 of the molar value.

Experiments:
[1] = target: ROCK-II (h) (Homo sapiens, UniProt O75116); test: ROCK-II (h) radiometric kinase assay; assay type: biochemical; conditions: read-out: IC50 anti-ROCK-II activity
Experimental: In a final reaction volume of 25 μl, ROCK-II (h) (5-10 mU) is incubated with 50 mM Tris pH 7.5, 0.1 mM EGTA, 30 μM […], 10 mM MgAcetate and [γ-^33P-ATP] (specific activity approx. 500 cpm/pmol, concentration as required). The reaction is initiated by the addition of the MgATP mix. After incubation for 40 minutes at room temperature, the reaction is stopped by the addition of 5 μl of a 3% phosphoric acid solution. 10 μl of the reaction is then spotted onto a P30 filtermat and washed three times for 5 minutes in 75 mM phosphoric acid and once in methanol prior to drying and scintillation counting.
The compound of example 29 was tested for anti-ROCK-II activity (assay as described above): […]

[2] = tested on: rat MM1 hepatoma cells; conditions: cited from earlier work
[3] = tested on: MM1 cells; conditions: continuous delivery using osmotic pumps, syngeneic rats; cited from earlier work
[4] = tested on: isolated rabbit urinary bladder smooth muscle; conditions: cited from earlier work

Chain of ROCK-II (h) (O75116 whole entry): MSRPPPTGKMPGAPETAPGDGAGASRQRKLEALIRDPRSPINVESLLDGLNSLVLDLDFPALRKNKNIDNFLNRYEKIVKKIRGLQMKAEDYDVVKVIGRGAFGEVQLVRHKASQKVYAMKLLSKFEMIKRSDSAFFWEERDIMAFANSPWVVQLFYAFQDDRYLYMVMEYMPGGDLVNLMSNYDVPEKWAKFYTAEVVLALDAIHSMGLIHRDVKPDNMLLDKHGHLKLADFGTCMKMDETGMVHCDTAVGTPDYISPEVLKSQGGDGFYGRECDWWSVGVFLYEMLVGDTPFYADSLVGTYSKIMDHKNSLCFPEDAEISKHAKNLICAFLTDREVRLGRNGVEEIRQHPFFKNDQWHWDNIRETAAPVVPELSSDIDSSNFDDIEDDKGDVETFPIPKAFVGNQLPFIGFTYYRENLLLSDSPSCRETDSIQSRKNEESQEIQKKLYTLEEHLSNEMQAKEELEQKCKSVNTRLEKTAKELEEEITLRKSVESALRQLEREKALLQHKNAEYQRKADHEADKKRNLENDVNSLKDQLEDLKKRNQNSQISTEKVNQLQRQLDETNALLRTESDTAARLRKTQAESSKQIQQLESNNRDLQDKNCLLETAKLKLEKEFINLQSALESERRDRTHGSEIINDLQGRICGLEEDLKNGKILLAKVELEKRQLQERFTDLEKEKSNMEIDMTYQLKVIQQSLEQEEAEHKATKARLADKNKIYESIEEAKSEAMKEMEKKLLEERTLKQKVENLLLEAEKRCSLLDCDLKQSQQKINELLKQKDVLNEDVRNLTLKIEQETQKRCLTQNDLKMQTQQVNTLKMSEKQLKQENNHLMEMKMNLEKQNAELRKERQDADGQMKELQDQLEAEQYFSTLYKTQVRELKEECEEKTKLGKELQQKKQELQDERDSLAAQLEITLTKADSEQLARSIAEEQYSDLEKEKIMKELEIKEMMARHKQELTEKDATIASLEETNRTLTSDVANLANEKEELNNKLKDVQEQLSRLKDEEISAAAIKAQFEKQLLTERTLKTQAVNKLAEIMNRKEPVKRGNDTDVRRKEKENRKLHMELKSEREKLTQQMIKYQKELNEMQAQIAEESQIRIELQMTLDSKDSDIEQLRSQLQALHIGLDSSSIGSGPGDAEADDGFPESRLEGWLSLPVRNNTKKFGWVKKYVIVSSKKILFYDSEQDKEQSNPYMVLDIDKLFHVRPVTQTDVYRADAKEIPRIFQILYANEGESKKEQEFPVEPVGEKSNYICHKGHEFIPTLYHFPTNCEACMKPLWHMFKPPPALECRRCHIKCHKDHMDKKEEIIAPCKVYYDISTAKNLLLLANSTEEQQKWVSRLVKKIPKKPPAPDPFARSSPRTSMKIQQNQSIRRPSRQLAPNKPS

Compound | pIC50 [1] | Rho-mediated activation of actomyosin [2] | invasive activity [2] | dissemination of MM1 cells [3] | bethanechol-evoked contractions [4]
NC(c1ccc(Cl)cc1)C1CCN(c2ccnc3[nH]ccc23)CC1 (centres unmarked) [Example 29, C-(4-Chlorophenyl)-C-[1-(1H-pyrrolo[2,3-b]pyridin-4-yl)piperidin-4-yl]methylamine] | > 7.00 |  |  |  | 
C[C@@H](N)[C@H]1CC[C@H](C(=O)Nc2ccncc2)CC1 [Example Y-27632] |  | blocked | blocked | considerably reduced | attenuates
